Several values for one entry are separate records, joined by “and”; a condition that tells them apart may be missing. Equal entries are not always repeated. Marks after values point to notes of the source that are not given here.
Experiments:
[1] = Pharmacokinetics and bioavailability in dogs, plasma determined by LC-MS; assay type: in vivo, dog
Method: A. The Pharmacokinetics of R-Oxiracetam In Vivo and Studies of Bioavailability
4 Determination Methods of Oxiracetam and R-Oxiracetam in Plasma by LC-MS
4.1 Chromatographic Conditions
Mobile phase: methanol: water (5:95)
Column: ZORBAX SB-Aq (2.1×100 mm 3.5μ)
Column temperature: 30° C.;
Injection volume: […] 4.2 Mass Spectrometry Detection Parameters
Mass spectrometry ionization method: electrospray ionization (ESI); ion polarity Positive; scanning mode for multiple reactions monitoring (MRM); scanning time of 100 ms. The ionic reactions used for quantitative analysis were m/z (oxiracetam) m/z 159.0→m/z 113.9 and m/z 143.1→m/z 126.0 (piracetam), respectively.
20 μL of the drug-containing the plasma sample is taken in a 1.5 mL Eppendorf tube. 20 μL of piracetam (20 μg/mL) of the internal standard solution is added, and mixed by the vortex mixer for 30s. Then, 500 μL of acetonitrile is added thereto, vortex shaken for 5 min and centrifugated at 16000 rpm for 10 min. The supernatant from the centrifugation was passed through 1 ml of SPE C 18E column and the filtrate was collected, put into 38° C. constant temperature water bath and dried by nitrogen gas. 300 μL of mobile phase was dissolved and the injection volume was 10 μL.
20 μL of blank dog plasma was added into the working solution prepared from the oxiracetam standard. The concentrations of oxiracetam in the plasma were 0.167, 0.33, 0.37, 1.33, 2.67, 4.0, 6.67, 13.33 and 26.67 μg/mL, respectively. A sample was made for each concentration respectively according to the procedures“4.4 Extraction of plasma samples”. The ratio of the peak area (As) of oxiracetam to the peak area (Ai) of the internal standard piracetam (f=As/Ai) were calculated, and perform linear regression using the concentration (C) to the ratio (f). The weight parameter 1/x, and the oxiracetam regression equation: y=5.2117X−0.76985 (r=0.9970, weight 1/x).
20 μL of blank dog plasma was added into the working solution prepared from the R-oxiracetam standard. The concentrations of R-oxiracetam in the plasma were 0.167, 0.33, 0.37, 1.33, 2.67, 4.0, 6.67, 13.33 and 26.67 μg/mL, respectively. A sample was made for each concentration respectively according to the procedures “4.4 Extraction of plasma samples”. The ratio of the peak area (As) of R-oxiracetam to the peak area (Ai) of the internal standard piracetam (f=As/Ai) were calculated, and perform linear regression using the concentration (C) to the ratio (f). The weight parameter 1/x, and the oxiracetam regression equation: y=1.6811X−0.031244(r=0.9949, weight 1/x).

[2] = tested on: lithium chloride-pilocarpine epilepsy model rat; experiment: Lithium chloride-pilocarpine rat epilepsy model, prophylactic administration; assay type: in vivo, SD rats; settings: 10 rats; for mortality rate: within 1 to 7 days after modeling
Excerpt: Stages: epileptic seizures evaluation are categorized by Racine Stages
Stage 0: no signs of any seizure;
Stage I: staring, head and face slightly trembling;
Stage II: head nodding or wet dog-like shaking;
Stage III: forelimb limit convulsions;
Stage IV: full-body ankylosing convulsions with a standing hind limb;
Stage V: full-body ankylosing clonic seizures with standing with fell;
Partial epilepsy seizure occurs when any one of Stage Ito Stage III appears;
Generalized epilepsy seizure occurs when Stage IV or Stage V appears;
Status epilepticus (SE) occurs when Stage IV or Stage V lasts 30 minutes.
The rat epilepsy models were treated with lithium chloride-pilocarpine and used levetiracetam as positive control. The duration of acute seizures of lithium chloride-pilocarpine epilepsy model rat was selected as the observation time, and prophylactic administration was used.
Animals were randomly divided into 4 groups, 10/group. Levetiracetam was selected as a positive control, 1.5 times of clinical dose were chosen, that is, 150 mg/kg. The clinical dose of an adult is 800 mg/times, twice daily, that is, 1600 mg/60 kg, 26.7 mg/kg. The dose of a rat is converted to 160 mg/kg according to body surface area. R-oxiracetam and levorotatory oxiracetam were selected half of the dose, that is, 80 mg/kg, and 1.5 times is 120 mg/kg. The dose was 1 ml/100 g, and the rats were treated with continuous administration for 7 days. As levetiracetam administration of 1.3 h (80 min), the plasma concentration peak, so we choose the last 80 minutes after the last administration of modeling. As administration of levetiracetam for 1.3 h (80 min), the plasma concentration peak was reached, so each group was selected after the last 80 minutes after the start of modeling.
Modeling method: After several previous test, the following modeling method was chosen: Animal ip. Lithium chloride 3 mmol/kg (1.5 ml/L) 127 mg/kg (12.7 mg/ml, 1 ml/100 g body weight), 24 h, 37.5 mg/kg pilocarpine three times ip. mg/kg (2.5 mg/ml, 0.5 ml/100 g body weight) at intervals of 10 minutes. […]

[3] = cited from earlier work
[4] = tested on: Pentetrazol (PTZ) ignited rat epilepsy model; experiment: Pentetrazol (PTZ)-ignited rat epilepsy model; assay type: in vivo, SD rats; settings: for Seizure latency (X ± SD) / occurrence rates of stage IV or above seizures: 500 mg/kg daily
Method: Rats were injected intraperitoneally with PTZ at a dose of 35 mg/kg (7 mg/ml, 0.5 ml/100 g body weight) for sub-convulsions three times weekly. The animals are weighed before each ip, and observed for behavioral changes after ip. within 1-2 h. Behavioral scoring was carried out according to the revised Racine score. Three consecutive occurrences of seizures of stage IV and above indicate successful ignition.
The animals successfully ignited were chosen to be grouped. The animals were randomly divided into 4 groups, 8-10/group. […] 3 times of clinical dose were chosen, that is, 500 mg/kg. […] The dosage is 1 ml/100 g, continuous intragastrical administration of 10 days. Specific dose settings are as follows:
PTZ 35 mg/kg. The animals are observed for behavioral changes within 2 h. Behavioral scoring was carried out according to the revised Racine score, continuous administration for 10 days, grading standards as mentioned above.
The seizures were recorded daily ip PTZ within 2 h. The seizure levels, latencies, mortality were recorded, and compared with the model control group.

[5] = 150 mg/kg for 7 days before modeling
[6] = 120 mg/kg for 7 days before modeling

NC(=O)CN1CC(O)CC1=O (racemic) [oxiracetam]
Concentration in dog blood C ([1]; Time 0 h, individual dogs, one table per dog): 0 ng/mL | Concentration in dog blood C ([1]; Time 0.25 h, individual dogs, one table per dog): 5123 ng/mL and -4948 ng/mL and 7540 ng/mL and -4135 ng/mL and 5092 ng/mL | Concentration in dog blood C ([1]; Time 0.5 h, individual dogs, one table per dog): 41650 ng/mL and 36440 ng/mL and 42030 ng/mL and 41740 ng/mL and 42350 ng/mL | Concentration in dog blood C ([1]; Time 1 h, individual dogs, one table per dog): 106427.1 ng/mL and 101410.1 ng/mL and 79361 ng/mL and 58870 ng/mL and 139963.8 ng/mL and 290065.6 ng/mL | Concentration in dog blood C ([1]; Time 1.25 h, individual dogs, one table per dog): 104196 ng/mL and 77730 ng/mL and 107177.3 ng/mL and 68450 ng/mL and 302273 ng/mL and 142365.9 ng/mL | Concentration in dog blood C ([1]; Time 1.5 h, individual dogs, one table per dog): 122326.7 ng/mL and 104856.7 ng/mL and 96860 ng/mL and 192364.2 ng/mL and 186435.5 ng/mL | Concentration in dog blood C ([1]; Time 2 h, individual dogs, one table per dog): 161110.6 ng/mL and 146146.6 ng/mL and 100650 ng/mL and 207535.1 ng/mL and 137414 ng/mL and 228058.3 ng/mL | Concentration in dog blood C ([1]; Time 4 h, individual dogs, one table per dog): 52390 ng/mL and 40540 ng/mL and 28940 ng/mL and 42680 ng/mL and 21070 ng/mL and 33010 ng/mL | Concentration in dog blood C ([1]; Time 6 h, individual dogs, one table per dog): 8396 ng/mL and 4367 ng/mL and 4934 ng/mL and 7743 ng/mL and 29760 ng/mL and 8301 ng/mL | Concentration in dog blood C ([1]; Time 8 h, individual dogs, one table per dog): -3894 ng/mL and -4318 ng/mL and -4781 ng/mL and -745.6 ng/mL and -465.7 ng/mL | Concentration in dog blood C ([1]; Time 12 h, individual dogs, one table per dog): -4730.8 ng/mL and -4338 ng/mL and -8257 ng/mL and -2959 ng/mL and -6329 ng/mL and -958.4 ng/mL | Concentration in dog blood C ([1]; Time 24 h, individual dogs, one table per dog): 0 ng/mL and 21660 ng/mL | concentration at 0 h ([1]; dog, plasma, Time 0 h, individual dogs, one table per dog, read-out: Concentration in dog blood C): 0 ng/mL | concentration at 0.25 h ([1]; dog, plasma, Time 0.25 h, individual dogs, one table per dog, read-out: Concentration in dog blood C): 4890 ng/mL | concentration at 0.5 h ([1]; dog, plasma, Time 0.5 h, individual dogs, one table per dog, read-out: Concentration in dog blood C): 28200 ng/mL | concentration at 1.5 h ([1]; dog, plasma, Time 1.5 h, individual dogs, one table per dog, read-out: Concentration in dog blood C): 148000 ng/mL | concentration at 8 h ([1]; dog, plasma, Time 8 h, individual dogs, one table per dog, read-out: Concentration in dog blood C): 3120 ng/mL | Cmax ([1]; dog, plasma, dogs, mean ± SD): 202000 ± 79500 ng/mL

CC[C@@H](C(N)=O)N1CCCC1=O [Levetiracetam]
Latency Stage I [2, 5]: 17.6 ± 4.1 min | Latency Stage II [2, 5]: 22.6 ± 5.8 min | Latency Stage III [2, 5]: 34.6 ± 9.4 min | Latency Stage IV [2, 5]: 33.6 ± 8.3 min | Latency Stage V [2, 5]: 74.3 ± 24.3 min | Number of Deaths [2, 5]: 5 | Number of SE Animals [2, 5]: 7 | Number of seizures Stage I [2, 5]: 1.8 ± 0.8 times | Number of seizures Stage II [2, 5]: 4.4 ± 3.7 times | Number of seizures Stage III [2, 5]: 3.6 ± 2.3 times | Occurrence rate Stage I [2, 5]: 10% | Occurrence rate Stage II [2, 5]: 9% | Occurrence rate Stage III [2, 5]: 8% | Occurrence rate Stage IV [2, 5]: 7% | Occurrence rate Stage V [2, 5]: 7% | duration Stage IV [2, 5]: 23.3 ± 6.6 min | duration Stage V [2, 5]: 63.3 ± 19.0 min | mortality rate [2, 5]: 50% | time of plasma concentration peak after administration ([3]; in vivo): 1.3 h

NC(=O)CN1C[C@@H](O)CC1=O [S-oxiracetam]
Latency Stage I [2, 6]: 16.9 ± 5.4 min | Latency Stage II [2, 6]: 26.7 ± 6.5 min | Latency Stage III [2, 6]: 35.4 ± 5.8 min | Latency Stage IV [2, 6]: 37.8 ± 7.4 min | Latency Stage V [2, 6]: 64.5 ± 23.2 min | Number of Deaths [2, 6]: 3 | Number of SE Animals [2, 6]: 4 | Number of seizures Stage I [2, 6]: 2.2 ± 1.0 times | Number of seizures Stage II [2, 6]: 5.2 ± 3.1 times | Number of seizures Stage III [2, 6]: 5.6 ± 4.2 times | Occurrence rate Stage I [2, 6]: 10% | Occurrence rate Stage II [2, 6]: 10% | Occurrence rate Stage III [2, 6]: 5% | Occurrence rate Stage IV [2, 6]: 4% | Occurrence rate Stage V [2, 6]: 4% | duration Stage IV [2, 6]: 27.5 ± 12.1 min | duration Stage V [2, 6]: 79.8 ± 29.5 min | mortality rate [2, 6]: 30%

CCCC(CCC)C(=O)[O-].[Na+] [Sodium valproate, reference compound]
Seizure latency (X ± SD) ([4]; D1): 4.00 ± 1.41 m | occurrence rates of stage IV or above seizures ([4]; D1): 4/6 (66.7) % | Seizure latency (X ± SD) ([4]; D2): 5.67 ± 2.25 m | occurrence rates of stage IV or above seizures ([4]; D2): 3/6(50.0) % | Seizure latency (X ± SD) ([4]; D3): 5.67 ± 1.37 m | occurrence rates of stage IV or above seizures ([4]; D3): 3/6 (50.0) % | Seizure latency (X ± SD) ([4]; D4): 6.33 ± 1.63 m | occurrence rates of stage IV or above seizures ([4]; D4): 2/6 (33.3) % | occurrence rates of stage IV or above seizures ([4]; D5): 2/6 (33.3) % | occurrence rates of stage IV or above seizures ([4]; D6): 2/6 (33.3) % | occurrence rates of stage IV or above seizures ([4]; D7): 1/6* (16.7) % | occurrence rates of stage IV or above seizures ([4]; D8): 0/6** (0) % | occurrence rates of stage IV or above seizures ([4]; D9): 1/6 (16.7) % | Seizure latency (X ± SD) ([4]; D10): 8.33 ± 0.82 m | occurrence rates of stage IV or above seizures ([4]; D10): 0/6* (0) % | mortality rate ([4]; 500 mg/kg intragastric, 10 days): 0% | Numbers of deaths (Number) ([4]; 500 mg/kg intragastric, 10 days, 6 animals): 0 | bioavailability ([3]; oral administration): ~100%

Reference: US20180147183A1, “USE OF R-OXIRACETAM IN PHARMACEUTICAL FIELD” (Chongqing Runze Pharmaceutical Co., Ltd., priority 2015, published 2018)
